According to patent US20240228488A1 (TAKEDA PHARMACEUTICAL COMPANY LIMITED, priority 2021, published 2024):

Assays:
[1] = biological target: human activated kallikrein enzyme (Homo sapiens, UniProt P03952); assay: Plasma kallikrein inhibition, fluorogenic PFR-AMC substrate, 500 pM activated kallikrein format; format: biochemical; conditions: 500 pM activated kallikrein, 300 uM PFR-AMC, 30 min preincubation, 10 min reaction; read-out: Primary Dose Response Assay: Average EC50
Outline: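 High-enzyme format of the fluorogenic peptide assay, with EC50 taken from AMC signal: 500 pM activated kallikrein, 300 uM Pro-Phe-Arg-AMC, 30 min compound preincubation and 10 min reaction, all at room temperature, pH 7.5.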

plasma kallikrein = biological target: T1, plasma kallikrein (Homo sapiens, UniProt P03952); assay: Neat human plasma assay, FXIIa contact pathway-activated, PFR-AMC substrate; format: biochemical; conditions: citrated human plasma 78% final, 10 nM human FXIIa, 100 μM PFR-AMC; read-out: Human Plasma Assay: IC90
T1 construct: from tissue
T1 sequence (P03952 391-638 limits assumed): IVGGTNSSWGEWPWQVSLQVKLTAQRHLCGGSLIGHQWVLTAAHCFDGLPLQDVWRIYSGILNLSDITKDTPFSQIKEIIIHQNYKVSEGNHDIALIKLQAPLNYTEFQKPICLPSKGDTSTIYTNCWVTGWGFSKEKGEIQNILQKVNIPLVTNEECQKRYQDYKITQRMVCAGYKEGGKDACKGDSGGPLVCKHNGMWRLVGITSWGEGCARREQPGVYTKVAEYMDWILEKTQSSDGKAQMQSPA
T1 sequence (P03952 20-390 partner limits assumed): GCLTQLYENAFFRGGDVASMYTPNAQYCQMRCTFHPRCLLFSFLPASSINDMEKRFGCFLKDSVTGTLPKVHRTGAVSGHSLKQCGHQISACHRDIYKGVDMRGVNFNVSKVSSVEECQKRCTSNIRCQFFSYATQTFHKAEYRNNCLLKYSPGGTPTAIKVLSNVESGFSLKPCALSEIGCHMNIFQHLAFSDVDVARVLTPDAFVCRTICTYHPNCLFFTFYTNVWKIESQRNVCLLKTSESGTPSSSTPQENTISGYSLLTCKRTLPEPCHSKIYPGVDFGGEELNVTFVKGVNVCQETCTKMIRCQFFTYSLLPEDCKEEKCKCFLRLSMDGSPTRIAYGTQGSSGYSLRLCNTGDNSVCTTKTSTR
Description: To analyze inhibition of plasma kallikrein in an ex vivo setting, the potency of compounds was measure in contact pathway-activated plasma assays. In a fluorogenic peptide substrate assay, test compounds dissolved in DMSO were added to sodium citrate collected human or rat plasma in a 96-well microplate. Alternatively, citrated plasma was collected from rats administered the compounds orally or by IV. 10 nM of human FXIIa (Enzyme Research Laboratories) diluted in pKal buffer (20 mM Tris-HCl, pH 7.5, 150 mM NaCl, 1 mM EDTA, 0.1% PEG-8000, and 0.1% Triton X-100) was added to the plasma, followed by the 100 μM of the profluorescent, synthetic plasma kallikrein substrate PFR-AMC (also diluted in pKal buffer). Final plasma concentration in the reaction was 78%. Fluorescence was immediately monitored by excitation/emission wavelengths of 360 nm/480 nm respectively over a period of 5 minutes in a microplate reader. The resulting linear increase in fluorescence emission (reflecting pKal proteolysis of PFR-AMC substrate) was fit to extract a proteolytic rate (fluorescent units over time), and this rate was subsequently plotted against compound inhibitor concentration. Resulting plots were fit to a standard 4-parameter IC50/IC90 equation to determine min/max values, IC50/90, and slope. All experimental steps were performed at room temperature. Table 50 provides results of the assay.

Sequence of human activated kallikrein enzyme (P03952 391-638 limits assumed): as the sequence (P03952 391-638 limits assumed) above
Sequence of human activated kallikrein enzyme (P03952 20-390 partner limits assumed): as the sequence (P03952 20-390 partner limits assumed) above

| Compound | EC50 [1] | IC90 (plasma kallikrein) |
| --- | --- | --- |
| CN1CC(F)(c2cc(C3CC3)cn3cc(CNc4cc(NC(=O)[C@H]5C[C@@H]5c5cccc(Cl)c5)ncn4)nc23)C1 [Example 402, (1S,2S)-2-(3-chlorophenyl)-N-(6-(((6-cyclopropyl-8-(3-fluoro-1-methylazetidin-3-yl)imidazo[1,2-a]pyridin-2-yl)methyl)amino)pyrimidin-4-yl)cyclopropane-1-carboxamide] | < 0.001 µM | 0.4 to 1.5 µM |
| Cc1ccnc([C@H]2C[C@@H]2C(=O)Nc2cc(Cc3cn4cc(C5CC5)cc(N5CC(=O)N(C)C5=O)c4n3)ncn2)n1 (racemic) [Example 620, rac-(1S*,2S*)—N-(6-((6-cyclopropyl-8-(3-methyl-2,4-dioxoimidazolidin-1-yl)imidazo[1,2-a]pyridin-2-yl)methyl)pyrimidin-4-yl)-2-(4-methylpyrimidin-2-yl)cyclopropane-1-carboxamide] | 0.001 to 0.01 µM | 0.4 to 1.5 µM |
| O=C(Nc1cc(NCc2cn3cc(C4CC4)cc(N4CCNC(C(F)(F)F)C4)c3n2)ccn1)[C@H]1C[C@@H]1c1cccc(Cl)c1 (stereo partly drawn) [Example I-21, (1S,2S)-2-(3-chlorophenyl)-N-(4-(((6-cyclopropyl-8-(3-(trifluoromethyl)piperazin-1-yl)imidazo[1,2-a]pyridin-2-yl)methyl)amino)pyridin-2-yl)cyclopropane-1-carboxamide] | 0.001 to 0.01 µM | 1.5 to 10 µM |
| Cc1ccnc([C@H]2C[C@@H]2C(=O)Nc2cc(N(C)Cc3cn4cc(C5CC5)cc(N5CC(=O)N(C)C5=O)c4n3)cnn2)n1 [Example I-254, (1S,2S)-N-(5-(((6-cyclopropyl-8-(3-methyl-2,4-dioxoimidazolidin-1-yl)imidazo[1,2-a]pyridin-2-yl)methyl)(methyl)amino)pyridazin-3-yl)-2-(4-methylpyrimidin-2-yl)cyclopropane-1-carboxamide] | < 0.001 µM | < 0.4 µM |
| COc1cc(N2CC(=O)N(C)C2=O)c2nc([C@@H](C)Nc3cc(NC(=O)[C@H]4C[C@@H]4c4nccc(C)n4)ncn3)cn2c1 [Example 415, (1S,2S)-N-(6-(((R)-1-(6-methoxy-8-(3-methyl-2,4-dioxoimidazolidin-1-yl)imidazo[1,2-a]pyridin-2-yl)ethyl)amino)pyrimidin-4-yl)-2-(4-methylpyrimidin-2-yl)cyclopropane-1-carboxamide] | < 0.001 µM | < 0.4 µM |
| O=C(Nc1cc(N(CCO)Cc2cn3cc(C4CC4)ccc3n2)ccn1)[C@H]1C[C@@H]1c1cccc(Cl)c1 [Example 604, (1S,2S)-2-(3-chlorophenyl)-N-(4-(((6-cyclopropylimidazo[1,2-a]pyridin-2-yl)methyl)(2-hydroxyethyl)amino)pyridin-2-yl)cyclopropane-1-carboxamide] | 0.001 to 0.01 µM | 10 to 48 µM |
| O=C(Nc1cc(NCc2cn3cc(C4CC4)ccc3n2)ccn1)[C@H]1C[C@@H]1c1cccc(Cl)c1 (single isomer, unassigned) [Example 117] | < 0.001 µM | 1.5 to 10 µM |
| O=C(Nc1cc(NCc2cn3cc(C4CC4)cc(N4CCN(C5COC5)CC4)c3n2)ccn1)[C@H]1C[C@@H]1c1cccc(Cl)c1 [Example I-233, (1S,2S)-2-(3-chlorophenyl)-N-(4-(((6-cyclopropyl-8-(4-(oxetan-3-yl)piperazin-1-yl)imidazo[1,2-a]pyridin-2-yl)methyl)amino)pyridin-2-yl)cyclopropane-1-carboxamide] | < 0.001 µM | 0.4 to 1.5 µM |
| CN1C(=O)CN(c2cc(C3CC3)cn3cc(CNc4cc(NC(=O)[C@@H]5[C@@H](c6cccc(Cl)c6)C5(F)F)ncn4)nc23)C1=O (racemic) [Example 543, rac-(1S*,3S*)-3-(3-chlorophenyl)-N-(6-(((6-cyclopropyl-8-(3-methyl-2,4-dioxoimidazolidin-1-yl)imidazo[1,2-a]pyridin-2-yl)methyl)amino)pyrimidin-4-yl)-2,2-difluorocyclopropane-1-carboxamide] | 0.001 to 0.01 µM | 1.5 to 10 µM |
| COCCN1CCN(c2cc(C3CC3)cn3cc(CNc4ccnc(NC(=O)[C@H]5C[C@@H]5c5cccc(Cl)c5)c4)nc23)CC1 [Example 599, (1S,2S)-2-(3-chlorophenyl)-N-(4-(((6-cyclopropyl-8-(4-(2-methoxyethyl)piperazin-1-yl)imidazo[1,2-a]pyridin-2-yl)methyl)amino)pyridin-2-yl)cyclopropane-1-carboxamide] | < 0.001 µM | < 0.4 µM |
| Cc1ccnc([C@H]2C[C@@H]2C(=O)Nc2cc(NCc3cn4cc(C5CC5)cc(N5CC(=O)N(C6CC6)C5=O)c4n3)ncn2)n1 [Example 384, (1S,2S)-N-(6-(((6-cyclopropyl-8-(3-cyclopropyl-2,4-dioxoimidazolidin-1-yl)imidazo[1,2-a]pyridin-2-yl)methyl)amino)pyrimidin-4-yl)-2-(4-methylpyrimidin-2-yl)cyclopropane-1-carboxamide] | < 0.001 µM | < 0.4 µM |
| O=C(Nc1cc(NCc2cn3cc(C4CC4)cc(N4CC(=O)N(CC(F)(F)F)C4=O)c3n2)ccn1)[C@H]1C[C@@H]1c1cccc(Cl)c1 [Example 512, (1S,2S)-2-(3-chlorophenyl)-N-(4-(((6-cyclopropyl-8-(2,4-dioxo-3-(2,2,2-trifluoroethyl)imidazolidin-1-yl)imidazo[1,2-a]pyridin-2-yl)methyl)amino)pyridin-2-yl)cyclopropane-1-carboxamide] | 0.001 to 0.01 µM | 1.5 to 10 µM |
| CC(C)(O)c1cc(C2CC2)cn2cc(CNc3cc(NC(=O)[C@H]4C[C@@H]4c4cc(Cl)ccc4C#N)ncn3)nc12 (racemic) [Example 337, (rac-(1S*,2S*))-2-(5-chloro-2-cyanophenyl)-N-(6-(((6-cyclopropyl-8-(2-hydroxypropan-2-yl)imidazo[1,2-a]pyridin-2-yl)methyl)amino)pyrimidin-4-yl)cyclopropane-1-carboxamide] | 0.001 to 0.01 µM | 10 to 48 µM |
| O=C(Nc1cc(NCc2cn3cc(C4CC4)ccc3n2)cc(CCN2CCOCC2)n1)[C@H]1C[C@@H]1c1cccc(Cl)c1 [Example 341, (1S,2S)-2-(3-chlorophenyl)-N-(4-(((6-cyclopropylimidazo[1,2-a]pyridin-2-yl)methyl)amino)-6-(2-morpholinoethyl)pyridin-2-yl)cyclopropane-1-carboxamide] | 0.001 to 0.01 µM | 1.5 to 10 µM |
| CN1CCN(c2cc(C3CC3)cn3cc(CNc4nccc(NC(=O)[C@H]5C[C@@H]5c5cccc(Cl)c5)n4)nc23)CC1 [Example 613, (1S,2S)-2-(3-chlorophenyl)-N-(2-(((6-cyclopropyl-8-(4-methylpiperazin-1-yl)imidazo[1,2-a]pyridin-2-yl)methyl)amino)pyrimidin-4-yl)cyclopropane-1-carboxamide] | 0.001 to 0.01 µM | 0.4 to 1.5 µM |
| O=C(Nc1cc(NCc2cn3cc(C4CC4)cc(N4CC(=O)N(CCO)C4=O)c3n2)ncn1)[C@H]1C[C@@H]1c1cccc(Cl)c1 [Example 463, (1S,2S)-2-(3-chlorophenyl)-N-(6-(((6-cyclopropyl-8-(3-(2-hydroxyethyl)-2,4-dioxoimidazolidin-1-yl)imidazo[1,2-a]pyridin-2-yl)methyl)amino)pyrimidin-4-yl)cyclopropane-1-carboxamide] | < 0.001 µM | 0.4 to 1.5 µM |
| O=C(Nc1cc(NCc2cn3cc(C4CC4)ccc3n2)ncn1)[C@H]1C[C@@H]1c1cc(Cl)ccn1 (single isomer, unassigned) [Example I-267, rac-(1S*,2S*)-2-(4-chloropyridin-2-yl)-N-(6-(((6-cyclopropylimidazo[1,2-a]pyridin-2-yl)methyl)amino)pyrimidin-4-yl)cyclopropane-1-carboxamide] | 0.001 to 0.01 µM | 10 to 48 µM |
| Cc1ccnc([C@H]2C[C@@H]2C(=O)Nc2cc(NCc3cn4cc(C5CC5)cc(S(C)(=O)=O)c4n3)ncn2)n1 (single isomer, unassigned) [Example 324] | < 0.001 µM | 0.4 to 1.5 µM |
| CN1CC(c2cc(C3CC3)cn3cc(CNc4cc(NC(=O)[C@H]5C[C@@H]5c5cccc(Cl)c5)ncn4)nc23)C1 [Example I-193, (1S,2S)-2-(3-chlorophenyl)-N-(6-(((6-cyclopropyl-8-(1-methylazetidin-3-yl)imidazo[1,2-a]pyridin-2-yl)methyl)amino)pyrimidin-4-yl)cyclopropane-1-carboxamide] | < 0.001 µM | < 0.4 µM |
| NCc1cc(C2CC2)cn2cc(CNc3ccnc(NC(=O)[C@H]4C[C@@H]4c4cccc(Cl)c4)c3)nc12 (racemic) [Example 120, rac-(1S*,2S*)—N-(4-(((8-(aminomethyl)-6-cyclopropylimidazo[1,2-a]pyridin-2-yl)methyl)amino)pyridin-2-yl)-2-(3-chlorophenyl)cyclopropane-1-carboxamide] | < 0.001 µM | 10 to 48 µM |
